We go through two compounds from patent US12599608B2, “Methods for treating cardiac valve disease” (The Regents of the University of California, priority 2018, dated 2026).

Assay [1] has as its system N1^+/−/mTR^G2 mice. Nature of the assay: In vivo small molecule treatment, staining of AV calcification with Alizarin Red. The following applies: for reduction of the extent of calcification / reduction of the number of mice that developed calcification: compared to DMSO-treated mice, Alizarin red; for reduction of the extent of calcification: TG003 n=2, p=0.09, XCT790 single calcified mouse, not statistically significant; for reduction of the number of mice that developed calcification: TG003 p=0.09, XCT790 not statistically significant; for number of mice with calcified AVs by Alizarin red staining: four weeks of treatment from fourth postnatal week, DMSO 14 of 86; for AV calcification, overall conclusion: summary statement. The procedure: (§1) Protocols were reviewed/approved by UCSF Institutional Animal Care and Use Committee, San Francisco, CA. N1^+/− and mTR^het C57Bl6 mice (purchased from Jackson Labs: #002797 and #004132, respectively) were used to generate double mutant animals. Breedings were performed as previously described (Theodoris et al., The Journal of Clinical Investigation. 2017; 127:1683) to generate N1^+/−/[…] mice. Mice were treated with XCT790 (5 mg/kg/day), TG003 (0.3 mg/kg/day or 2 mg/kg/day, results pooled for analysis), Fmoc-leu (0.6 mg/kg/day), GSK837149A (4.5 mg/kg/day), biperiden (10 mg/kg/day), CB1954 (15 mg/kg/day), putrescine (0.26 mg/kg/day), naloxone (25 mg/kg/day), all by intraperitoneal injection, and RO4929097 (60 mg/kg/day) by oral gavage, or equivalent volume of solvent (DMSO or saline) for four weeks starting at the fourth postnatal week.
Hearts were fixed by perfusion fixation under anesthesia using isofluorane by ventricular KCl injection followed by PBS wash and fixation with 4% paraformaldehyde. Hearts were then incubated in 10% formalin overnight. The cardiac apex was cut parallel to the aortic root, and the heart tissue was then paraffin processed using standard protocols and embedded with the cut surface down. The resulting paraffin block was trimmed and angled to obtain a full three-leaflet view of the aortic root. The root was serially sectioned at […] intervals from the base of the aortic sinus and mounted on slides. The slides were then deparaffinized, and calcification was stained with 2% Alizarin Red (pH 4.1-4.3) as previously described (Theodoris et al., The Journal of Clinical Investigation. 2017; 127:1683).

Assay [2] concerns N1^+/−/mTR^G2 mice. Nature of the assay: In vivo small molecule treatment, AV and PV peak velocity by echocardiography. The following applies: XCT790 5 mg/kg/day i.p., TG003 0.3 or 2 mg/kg/day i.p. pooled; for AV stenosis by echocardiography: AV peak velocity versus DMSO; for PV stenosis by echocardiography: PV peak velocity versus DMSO. The protocol:
as §1
Echocardiography was performed under isofluorane anesthesia with standard measurement techniques using the Vevo 770 Imaging System (VisualSonics) equipped with an RMV-707B transducer with central frequency of 30 MHz. Peak blood flow velocity through AVs and PVs was obtained by pulsed wave Doppler in the modified parasternal long and short axis views. The average of three cardiac cycles was used for each measurement.

Take `CCN1/C(=C/C(C)=O)Sc2ccc(OC)cc21` [TG003, (Z)-1-(3-ethyl-5-methoxy-2,3-dihydrobenzothiazol-2-ylidene)propan-2-one]: in assay [1], the “reduction of the extent of calcification” value came out at 80%; the “reduction of the number of mice that developed calcification” value was found to be 68%; the “number of mice with calcified AVs by Alizarin red staining” value is listed as 2 of 38; the “AV calcification, overall conclusion” value was “showed a trend of reducing AV calcification”. In assay [2], the “AV stenosis by echocardiography” value was “did not significantly impact” and the “PV stenosis by echocardiography” value was “did not significantly impact”.
In the case of `COc1cc(/C=C(\C#N)C(=O)Nc2nnc(C(F)(F)F)s2)ccc1OCc1ccc(C(F)(F)F)cc1C(F)(F)F` [XCT790, 2E-3-(4-{[2,4-bis(trifluoromethyl)benzyl]oxy}-3-methoxyphenyl)-2-cyano-N-[5-(trifluoromethyl)-1,3,4-thiadiazol-2-yl]acrylamide], in assay [1], the “reduction of the extent of calcification” value came out at 99%; the “reduction of the number of mice that developed calcification” value stood at 64%; the “number of mice with calcified AVs by Alizarin red staining” value is given as 1 of 17; the “AV calcification, overall conclusion” value is on record as “showed a trend of reducing AV calcification”. In assay [2], the “AV stenosis by echocardiography” value is on record as “showed a trend of reducing AV stenosis” and the “PV stenosis by echocardiography” value is listed as “sufficient to prevent PV stenosis”.
